Measured values taken from ChEMBL document CHEMBL5143747, “Discovery and Optimization of Triazolopyrimidinone Derivatives as Selective NLRP3 Inflammasome Inhibitors” (ACS Med Chem Lett, 2022).
In brackets after ≈: the same amount, converted by molar mass.

Assays:
[1] = target: T1, NACHT, LRR and PYD domains-containing protein 3 (Homo sapiens, UniProt Q96P20); experiment: Inhibition of NLRP3 inflammasome in LPS-pretreated PBMC (unknown origin) assessed as reduction in IL-1beta release pretreated for 30 mins followed by ATP stimulated and measured after 1 hr by ELISA; assay type: cell-based
T1 sequence (Q96P20 whole entry, the tested form may be a part): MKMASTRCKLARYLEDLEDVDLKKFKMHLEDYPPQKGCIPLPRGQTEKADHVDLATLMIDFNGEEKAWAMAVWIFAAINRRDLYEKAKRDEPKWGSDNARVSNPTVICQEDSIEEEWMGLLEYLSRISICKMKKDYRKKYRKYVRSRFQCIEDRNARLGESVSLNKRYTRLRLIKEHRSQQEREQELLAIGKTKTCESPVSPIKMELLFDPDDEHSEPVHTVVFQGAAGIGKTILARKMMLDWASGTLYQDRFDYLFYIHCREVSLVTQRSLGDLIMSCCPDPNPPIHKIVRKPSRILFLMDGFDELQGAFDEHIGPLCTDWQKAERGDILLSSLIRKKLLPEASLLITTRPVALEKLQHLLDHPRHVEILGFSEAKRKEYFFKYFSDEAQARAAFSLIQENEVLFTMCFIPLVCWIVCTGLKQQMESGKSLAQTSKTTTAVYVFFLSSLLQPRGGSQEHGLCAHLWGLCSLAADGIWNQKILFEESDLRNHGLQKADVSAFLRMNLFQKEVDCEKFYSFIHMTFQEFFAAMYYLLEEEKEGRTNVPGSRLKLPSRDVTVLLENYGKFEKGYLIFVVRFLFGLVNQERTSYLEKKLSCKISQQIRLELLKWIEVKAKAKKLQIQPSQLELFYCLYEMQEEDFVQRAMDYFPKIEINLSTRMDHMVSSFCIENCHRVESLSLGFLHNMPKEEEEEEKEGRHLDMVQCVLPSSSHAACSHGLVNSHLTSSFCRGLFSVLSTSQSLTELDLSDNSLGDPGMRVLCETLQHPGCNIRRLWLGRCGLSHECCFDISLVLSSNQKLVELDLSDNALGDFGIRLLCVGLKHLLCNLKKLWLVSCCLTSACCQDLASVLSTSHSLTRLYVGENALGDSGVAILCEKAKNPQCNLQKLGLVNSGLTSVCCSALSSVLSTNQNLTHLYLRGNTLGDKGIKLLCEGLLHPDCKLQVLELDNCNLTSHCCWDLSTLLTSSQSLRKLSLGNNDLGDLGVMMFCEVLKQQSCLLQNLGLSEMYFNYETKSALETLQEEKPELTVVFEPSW

[2] = target: T1, NACHT, LRR and PYD domains-containing protein 3; experiment: Inhibition of NLRP3 inflammasome in LPS-pretreated PBMC (unknown origin) assessed as reduction in IL-1beta release at 40 uM pretreated for 30 mins followed by ATP stimulated and measured after 1 hr by ELISA relative to control; assay type: cell-based; conditions: time 90.0 min
[3] = Thermodynamic solubility of compound in pH 7.4 phosphate buffer incubated for 24 hrs under shaking condition by UPLC analysis; assay type: physicochemical; conditions: read-out: Therm_solubility
[4] = Protein binding in human plasma; assay type: ADME, cell-free; conditions: read-out: PPB (converted)
[5] = Permeability of compound in pH 7.4 phosphate buffered saline at 10 uM measured after 4 hrs by PAMPA; assay type: ADME; conditions: read-out: permeability
[6] = Protein binding in mouse plasma; assay type: ADME, cell-free; conditions: read-out: PPB (converted)
[7] = Inhibition of LPS-stimulated IL-6 release in human PBMC measured after 4 hrs by ELISA; assay type: toxicity, cell-based
[8] = Protein binding in rat plasma; assay type: ADME, cell-free; conditions: read-out: PPB (converted)
[9] = Inhibition of LPS-stimulated TNF-alpha release in human PBMC measured after 4 hrs by ELISA; assay type: toxicity, cell-based
[10] = target: T1, NACHT, LRR and PYD domains-containing protein 3; experiment: Inhibition of NLRP3 inflammasome in LPS-pretreated human whole blood assessed as reduction in IL-1beta release pretreated for 30 mins followed by ATP stimulated and measured after 1 hr by HTRF assay; assay type: tissue-based
[11] = target: T1, NACHT, LRR and PYD domains-containing protein 3; experiment: Inhibition of NLRP3 inflammasome in LPS-pretreated human THP1-ASC-GFP cells assessed as reduction in speck positive cells measured after 30 mins in presence of caspase inhibitor zVAD-FMK by Hoechst 33342 staining based confocal microscopy; assay type: cell-based

Molecule `O=c1cc(C2CCOCC2)[nH]c2nc(Nc3c4c(cc5c3CCC5)CCC4)nn12` has an IC50 ([1]; read-out: IC50) of 6.3 µM.
With `O=c1cc(Cc2cccc(Cl)c2)[nH]c2nc(Nc3c4c(cc5c3CCC5)CCC4)nn12` the IC50 ([1]; read-out: IC50) was 2.8 µM.
With `Cc1cc2[nH]c(Nc3c4c(cc5c3CCC5)CCC4)nn2c(=O)n1` the IC50 ([1]; read-out: IC50) was > 40 µM.
`N#Cc1cccc(Cc2cc(=O)n3nc(Nc4c5c(cc6c4CCC6)CCC5)nc3[nH]2)c1` showed an IC50 ([1]; read-out: IC50) of 2.4 µM.
In the case of `COc1ccc(Cc2cc(=O)n3nc(Nc4c5c(cc6c4CCC6)CCC5)nc3[nH]2)cc1`, the IC50 ([1]; read-out: IC50) is reported as 3 µM.
`Cc1ccccc1Cc1cc(=O)n2nc(Nc3c4c(cc5c3CCC5)CCC4)nc2[nH]1` showed an IC50 ([1]; read-out: IC50) of 4 µM.
`Cc1cc(=O)n2nc(Nc3c4c(cc5c3CCC5)CCC4)nc2[nH]1` gave an inhibition [2] of 70%.
`O=c1cc(Cc2ccccc2F)[nH]c2nc(Nc3c4c(cc5c3CCC5)CCC4)nn12` gave an IC50 ([1]; read-out: IC50) of 3.7 µM.
`Cn1cncc1Cc1cc(=O)n2nc(Nc3c4c(cc5c3CCC5)CCC4)nc2[nH]1` gave an IC50 ([1]; read-out: IC50) of 16 µM.
In the case of `O=c1cc(CC2CCOCC2)[nH]c2nc(Nc3c4c(cc5c3CCC5)CCC4)nn12`, the IC50 ([1]; read-out: IC50) is reported as 3.4 µM.
For `O=c1cc(C2CCCNC2)[nH]c2nc(Nc3c4c(cc5c3CCC5)CCC4)nn12` (stereo not drawn), the IC50 ([1]; read-out: IC50) was > 40 µM.
Work on `Cn1nccc1Cc1cc(=O)n2nc(Nc3c4c(cc5c3CCC5)CCC4)nc2[nH]1` yielded an IC50 ([1]; read-out: IC50) of 2 µM.
In the case of `O=c1cc(CC2CCOC2)[nH]c2nc(Nc3c4c(cc5c3CCC5)CCC4)nn12` (stereo not drawn), the IC50 ([1]; read-out: IC50) is reported as 5 µM.
With `Cc1cc(=O)n2nc(Nc3c4c(cc5c3CCC5)CCC4)nc2n1C` the IC50 ([1]; read-out: IC50) was > 40 µM.
For `S=c1cc(Cc2ccccn2)[nH]c2nc(Nc3c4c(cc5c3CCC5)CCC4)nn12`, the solubility thermodynamic at 24 h [3] was 1500 µM (≈ 622 µg/mL), the fraction unbound [4] was 0.019 and the Papp at 4 h, 10 µM [5] was < 0.018 ×10⁻⁶ cm/s. The fraction unbound [6] was 0.004, the IC50 [7] was > 40 µM and the fraction unbound [8] was 0.015. For the same molecule, the IC50 [9] was > 40 µM.
With `O=c1cc(Cc2ccc(Cl)cc2)[nH]c2nc(Nc3c4c(cc5c3CCC5)CCC4)nn12` the IC50 ([1]; read-out: IC50) was 10 µM.
With `Cc1[nH]c2nc(Nc3c4c(cc5c3CCC5)CCC4)nn2c(=O)c1C` the IC50 ([1]; read-out: IC50) was > 40 µM.
`CCc1cc(=O)n2nc(Nc3c4c(cc5c3CCC5)CCC4)nc2[nH]1` showed an IC50 ([1]; read-out: IC50) of 8.7 µM.
For `CN1CCN(Cc2cc(=O)n3nc(Nc4c5c(cc6c4CCC6)CCC5)nc3[nH]2)CC1`, the IC50 ([1]; read-out: IC50) was > 40 µM.
Work on `O=c1cc(CC2COCCN2)[nH]c2nc(Nc3c4c(cc5c3CCC5)CCC4)nn12` (stereo not drawn) yielded an IC50 ([1]; read-out: IC50) of 5.4 µM.
With `O=c1cc(Cc2ccccc2Cl)[nH]c2nc(Nc3c4c(cc5c3CCC5)CCC4)nn12` the IC50 ([1]; pbmc) was “Nd(Insoluble)”.
Molecule `O=c1cc(Cc2ccncc2)[nH]c2nc(Nc3c4c(cc5c3CCC5)CCC4)nn12` has an IC50 ([1]; read-out: IC50) of 5.8 µM.
In the case of `O=c1cc(C2CCNCC2)[nH]c2nc(Nc3c4c(cc5c3CCC5)CCC4)nn12`, the IC50 ([1]; read-out: IC50) is reported as > 40 µM.
With `CN1CCC(c2cc(=O)n3nc(Nc4c5c(cc6c4CCC6)CCC5)nc3[nH]2)CC1` the IC50 ([1]; read-out: IC50) was > 40 µM.
`O=c1cc(CN2CCOCC2)[nH]c2nc(Nc3c4c(cc5c3CCC5)CCC4)nn12` showed an IC50 ([1]; read-out: IC50) of 7.8 µM.
For `COc1c(C)[nH]c2nc(Nc3c4c(cc5c3CCC5)CCC4)nn2c1=O`, the IC50 ([1]; read-out: IC50) was > 40 µM.
Molecule `N#Cc1ccc(Cc2cc(=O)n3nc(Nc4c5c(cc6c4CCC6)CCC5)nc3[nH]2)cc1` has an IC50 ([1]; read-out: IC50) of 1.6 µM.
`O=c1cc(CCc2ccccc2)[nH]c2nc(Nc3c4c(cc5c3CCC5)CCC4)nn12` gave an IC50 ([1]; read-out: IC50) of 3.4 µM.
With `Cc1[nH]c2nc(Nc3c4c(cc5c3CCC5)CCC4)nn2c(=O)c1C#N` the IC50 ([1]; read-out: IC50) was > 40 µM.
For `Cc1[nH]c2nc(Nc3c4c(cc5c3CCC5)CCC4)nn2c(=O)c1Cc1ccccc1`, the IC50 ([1]; read-out: IC50) was > 40 µM.
With `Cc1c[nH]c2nc(Nc3c4c(cc5c3CCC5)CCC4)nn2c1=O` the IC50 ([1]; read-out: IC50) was > 40 µM.
`CN1CCCC(c2cc(=O)n3nc(Nc4c5c(cc6c4CCC6)CCC5)nc3[nH]2)C1` (stereo not drawn) gave an IC50 ([1]; read-out: IC50) of 4.9 µM.
With `Cc1ccn2nc(Nc3c4c(cc5c3CCC5)CCC4)nc2n1` the IC50 ([1]; read-out: IC50) was > 40 µM.
With `CN1CCOC(Cc2cc(=O)n3nc(Nc4c5c(cc6c4CCC6)CCC5)nc3[nH]2)C1` (stereo not drawn) the IC50 ([1]; read-out: IC50) was 8.8 µM.
For `O=c1cc(Cc2ccccc2)[nH]c2nc(Nc3c4c(cc5c3CCC5)CCC4)nn12`, the IC50 ([1]; read-out: IC50) was 1.8 µM.
`Cc1cc(=O)n2nc(Nc3c4c(cc5c3CCC5)CCC4)cc2[nH]1` gave an inhibition [2] of 57%.
`O=c1cc[nH]c2nc(Nc3c4c(cc5c3CCC5)CCC4)nn12` showed an inhibition [2] of 77%.
With `Cn1ccc(Cc2cc(=O)n3nc(Nc4c5c(cc6c4CCC6)CCC5)nc3[nH]2)n1` the IC50 ([1]; read-out: IC50) was 1.8 µM.
In the case of `Cn1cc(Cc2cc(=O)n3nc(Nc4c5c(cc6c4CCC6)CCC5)nc3[nH]2)cn1`, the IC50 ([1]; read-out: IC50) is reported as 4.9 µM.
`COCCc1cc(=O)n2nc(Nc3c4c(cc5c3CCC5)CCC4)nc2[nH]1` showed an IC50 ([1]; read-out: IC50) of 2.8 µM.
`O=c1cc(Cc2cccnc2)[nH]c2nc(Nc3c4c(cc5c3CCC5)CCC4)nn12` showed an IC50 ([1]; read-out: IC50) of 3.4 µM.
In the case of `O=c1cc(Cc2ncccn2)[nH]c2nc(Nc3c4c(cc5c3CCC5)CCC4)nn12`, the IC50 ([1]; read-out: IC50) is reported as 1.7 µM.
For `S=c1cc(CC2CCCCO2)[nH]c2nc(Nc3c4c(cc5c3CCC5)CCC4)nn12` (stereo not drawn), the solubility thermodynamic at 24 h [3] was 730 µM (≈ 308 µg/mL), the fraction unbound [4] was 0.001 and the Papp at 4 h, 10 µM [5] was < 0.0004 ×10⁻⁶ cm/s. For the same molecule, the fraction unbound [6] was 0.004, the IC50 [7] was > 20 µM and the fraction unbound [8] was 0.002. For the same molecule, the IC50 [9] was > 20 µM.
For `CN1CCOCC1Cc1cc(=O)n2nc(Nc3c4c(cc5c3CCC5)CCC4)nc2[nH]1` (stereo not drawn), the IC50 ([1]; read-out: IC50) was 6 µM.
With `N#Cc1ccccc1Cc1cc(=O)n2nc(Nc3c4c(cc5c3CCC5)CCC4)nc2[nH]1` the IC50 ([1]; pbmc) was “Nd(Insoluble)”.
In the case of `O=c1cc(Cc2ccccn2)[nH]c2nc(Nc3c4c(cc5c3CCC5)CCC4)nn12`, the solubility thermodynamic at 24 h [3] is reported as 2.4 µM (≈ 0.956 µg/mL), the fraction unbound [4] is reported as 0.002 and the Papp at 4 h, 10 µM [5] is reported as < 0.018 ×10⁻⁶ cm/s. For the same molecule, the IC50 [7] was > 40 µM and the IC50 [9] was > 40 µM.
Work on `Cn1cnc(Cc2cc(=O)n3nc(Nc4c5c(cc6c4CCC6)CCC5)nc3[nH]2)c1` yielded an IC50 ([1]; read-out: IC50) of 5.5 µM.
`O=c1cc(CC2CCCCO2)[nH]c2nc(Nc3c4c(cc5c3CCC5)CCC4)nn12` (stereo not drawn) gave an IC50 ([1]; read-out: IC50) of 1.9 µM, a solubility thermodynamic at 24 h [3] of 24 µM (≈ 9.73 µg/mL) and a fraction unbound [4] of 0.001. The IC50 [10] was > 40 µM, the Papp at 4 h, 10 µM [5] was 0.038 ×10⁻⁶ cm/s and the fraction unbound [6] was 0.002. The IC50 [7] was > 40 µM, the IC50 [9] was > 40 µM and the IC50 [11] was 1.3 µM.
Work on `O=c1cc(CC2CCCCC2)[nH]c2nc(Nc3c4c(cc5c3CCC5)CCC4)nn12` yielded an IC50 ([1]; read-out: IC50) of 4.5 µM.
